Measured values taken from article PMC9822434, “Estradiol-Based Salicylaldehyde (Thio)Semicarbazones and Their Copper Complexes with Anticancer, Antibacterial and Antioxidant Activities” (Molecules, 2022).
Converted amounts (≈) assume the structure as drawn.

Key:
[1] = DPPH free radical scavenging assay
Procedure, shortened: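 DPPH at 50 µM final mixed with compound (5–50 µM final) in ethanol at 25.0 ± 0.1 °C in tandem cuvette, read spectrophotometrically. Antioxidant activity percentage, IC50 (concentration reducing 50% of DPPH) and Trolox equivalent capacity derived; Trolox as positive control.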

[2] = system: E. faecalis ATCC 29212; assay: MIC determination; format: cell-based, Enterococcus faecalis; conditions: Enterococcus faecalis, ATCC29212; Gram-positive E. faecalis ATCC 29212; Mueller Hinton Broth
Procedure, shortened: (§1)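 Broth microdilution in Mueller Hinton Broth, two-fold serial dilutions starting at 100 µM compound (from 10 mM stocks in 90% DMSO). Each well inoculated with a 10^−4 dilution of overnight culture. MIC read per prior lab method.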

[3] = format: physicochemical
Procedure, shortened: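 UV–vis pH-metric titrations at 25.0 ± 0.1 °C, I = 0.10 M KCl, 30% (v/v) DMSO/H2O under argon; ligand 20 μM, pH 2.0–12.5, alone or with 1 or 0.5 equiv. Cu(II). Spectra 200–800 nm, 2 cm path; pKa, overall stability constants (β) and species spectra fitted with PSEQUAD.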

[4] = system: S. aureus ATCC 25928; assay: MIC determination; format: cell-based, Staphylococcus aureus; conditions: Gram-positive S. aureus ATCC 25928, Mueller Hinton Broth
Procedure, shortened: as §1

[5] = system: MCF-7; assay: MTT cytotoxicity assay; format: cell-based, human; conditions: Homo sapiens, MCF7; MCF-7, MTT, 24 h incubation time
Procedure, shortened: (§2)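 Cells were exposed 24 h to 0–20 µM (2.5, 5, 10, 15, 20 µM) Cu(II) complexes, ligands or metal salts (equimolar ligand–CuCl2), then 0.5 mg/mL MTT for 1 h at 37 °C. Formazan was dissolved in DMSO and read at 570 nm; viability is relative to untreated control as 100%.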

[6] = system: MCF-7 KCR; assay: MTT cytotoxicity assay; format: cell-based, human; conditions: Homo sapiens, MCF7, 24 h incubation time
Procedure, shortened: as §2

[7] = system: A549; assay: MTT cytotoxicity assay; format: cell-based, human; conditions: Homo sapiens, 24 h incubation time
Procedure, shortened: as §2

[8] = system: DU-145; assay: MTT cytotoxicity assay; format: cell-based, human; conditions: Homo sapiens; DU-145, MTT, 24 h incubation time
Procedure, shortened: as §2

[9] = system: A549, MCF-7, MCF-7 KCR and DU-145 cells; assay: γH2AX immunostaining (DNA double-strand breaks); format: cell-based, human; conditions: 20 µM, 3 h
Description: In order to determine the degree of DNA damage induced by the treatments, DNA double-strand breaks were visualized by γH2AX immunostaining. For this, 1 × 10^5 cells/well were seeded onto coverslips in 24-well plates. […] Then, cells were fixed with 4% formaldehyde (Molar Chemicals, Halásztelek, Hungary), permeabilized with 0.3% Triton-X-100 (Calbiochem, Merck Millipore, Darmstadt, Germany) and were blocked using 5% bovine serum albumin (BSA) (Sigma-Aldrich, St. Louis, MO, USA). Then, the samples were incubated with anti-γH2AX antibody (Thermo Fisher Scientific, Waltham, MA, USA) in 1:300 dilution followed by Alexa 488 fluorophore-conjugated goat anti-mouse secondary antibody (Abcam, Cambridge, UK) in 1:600 dilution. The fluorescence intensity of the stained samples was detected by an Olympus FV10i confocal microscope.

[10] = Cu(II) complex of the named ligand, 30% (v/v) DMSO/H2O, T = 25.0 °C, I = 0.1 M (KCl)

C[C@]12CC[C@@H]3c4cc(C=NNC(N)=S)c(O)cc4CC[C@H]3[C@@H]1CCC2O (stereo partly drawn) [estradiol-TSC, 2-((3,17 Dihydroxy-estra-1,3,5(10)-triene-2-yl)methylene)Hydrazine-1-carbothioamide]
TEAC (Trolox equivalent antioxidant capacity) ([1]; DPPH assay in ethanol, 25 °C): 0.8
% Scavenging Effect ([1]; DPPH:compound = 1:1 ratio after 30 min, ethanol, 25 °C): 72.0%
IC50 ([1]; in ethanol, T = 25 °C, cDPPH = 50 µM, ccompound = 5−50 µM): 14.6 µM
MIC [2]: > 100 µM
pKa [CuL]+ [3]: 3.95
logβ [CuLH−1] [3, 10]: 9.84 ± 0.03
logβ [CuL]+ [3, 10]: 13.79 ± 0.03
pCu5.0 ([3]; calculated at pH 5.0, cCu(II) = 20 µM, cligand = 20 µM): 7.8
pCu6.0 ([3]; estimated at pH 6.0, cCu(II) = 20 µM, cligand = 20 µM): 9.3
pCu7.4 ([3]; estimated at pH 7.4, cCu(II) = 20 µM, cligand = 20 µM): 12.1
MIC [4]: 25 µM (≈ 9.34 µg/mL)
MIC ([4]; Staphylococcus aureus, ATCC25928): 25 µM (≈ 9.34 µg/mL)
IC50 [5]: > 20 µM
IC50 [6]: > 20 µM
IC50 [7]: 20.5 ± 1.07 µM
IC50 [8]: > 20 µM
melting point: 229 to 231 °C
DNA double-strand breaks (γH2AX) vs untreated control cells [9]: None of these treatments caused a higher degree of DNA damage
